The values that follow come from patent publication US20120029085A1, “STABILIZATION OF QUINOL COMPOSITION SUCH AS CATECHOLAMINE DRUGS” (priority 2010, published 2012).

The conditions of data set [1]: cited from earlier work.
The nature of data set [2]: Percent protonated (RNH+) and unprotonated (RN) amine form of local anesthetics as a function of pH. Format: physicochemical. To be noted: for % RNH(+) at pH 5.0: pH 5.0, protonated form; for % RN at pH 5.0: pH 5.0, unprotonated form; for % RNH(+) at pH 6.5: pH 6.5, protonated form; for % RN at pH 6.5: pH 6.5, unprotonated form; for % RNH(+) at pH 7.4: pH 7.4, protonated form; for % RN at pH 7.4: pH 7.4, unprotonated form. From the text: According to the Henderson-Hasselbalch equation:
pH=pKa+log([A^−]/[HA]) (I)

The conditions of data set [3]: amine group of the local anesthetic; cited from earlier work.
For data set [4] the following is noted: cystine/cysteine redox couple; cited from earlier work.

The structures appear in SMILES notation.

Take `CCC(CC)(C(=O)O)C(=O)O` [diethylmalonic acid]: in data set [1] (text list of pH buffers, b28), the “pKa (value in parentheses after the buffer name)” value is reported as 7.2.

`CCCNC(C)C(=O)Nc1ccccc1C` (stereo not drawn) [Prilocaine]: in data set [2], the “% RNH(+) at pH 5.0” value amounted to 99.87%, the “% RN at pH 5.0” value came out at 0.13%, the “% RNH(+) at pH 6.5” value was found to be 96.17% and the “% RN at pH 6.5” value was 3.83%. Besides, in data set [2], the “% RNH(+) at pH 7.4” value is on record as 75.97% and the “% RN at pH 7.4” value amounted to 24.03%.

As for `O=S(=O)(O)CCCCN1CCOCC1` [MOBS], the pKa (commonly the pH at which an ionisable group is half protonated) in data set [1] (Table 3, buffer) is reported as 7.60.

As for `CCN(CC)CCOC(=O)c1ccc(N)cc1Cl` [Chloroprocaine], in data set [2], the “% RNH(+) at pH 5.0” value turned out to be 99.98%, the “% RN at pH 5.0” value came to 0.02%, the “% RNH(+) at pH 6.5” value worked out at 99.37% and the “% RN at pH 6.5” value is given as 0.63%. Also, in data set [2], the “% RNH(+) at pH 7.4” value is given as 95.23% and the “% RN at pH 7.4” value is 4.77%. For the same compound, the “pKa (amine)” value in data set [3] is on record as 8.7.

Consider `NC(=O)CN(CC(=O)O)CC(=O)O` [ADA], for which the pKa in data set [1] (Table 3, buffer) is 6.60.

Turning to `O=C(O)CNC(CO)(CO)CO` [Tricine], the pKa in data set [1] (Table 3, buffer) is 8.05.

Take `O=C(O)CC(O)C(=O)O` (stereo not drawn) [Malate]: in data set [1] (Table 3, buffer, second dissociation), the pKa2 is reported as 5.13.

Consider `CCCCOc1cc(C(=O)NCCN(CC)CC)c2ccccc2n1` [Dibucaine], for which, in data set [2], the “% RNH(+) at pH 5.0” value is listed as 99.98%, the “% RN at pH 5.0” value was determined as 0.02%, the “% RNH(+) at pH 6.5” value worked out at 99.50% and the “% RN at pH 6.5” value worked out at 0.50%. In data set [2], the “% RNH(+) at pH 7.4” value is recorded as 96.17% and the “% RN at pH 7.4” value was found to be 3.83%. In addition, in data set [3], the “pKa (amine)” value is recorded as 8.8.

On to `CCN(CC)CC(=O)Nc1c(C)cccc1C` [Lidocaine], for which, in data set [2], the “% RNH(+) at pH 5.0” value is given as 99.87%, the “% RN at pH 5.0” value was determined as 0.13%, the “% RNH(+) at pH 6.5” value turned out to be 96.17% and the “% RN at pH 6.5” value worked out at 3.83%. Also, in data set [2], the “% RNH(+) at pH 7.4” value came out at 75.97% and the “% RN at pH 7.4” value amounted to 24.03%.

In the case of `N[C@@H](CS)C(=O)O` [cysteine], the “standard reduction potential E°” value in data set [4] is recorded as −0.34 V.

On to `CCOC(=O)c1ccc(N)cc1` [Benzocaine], for which, in data set [2], the “% RNH(+) at pH 5.0” value is recorded as 0.99%, the “% RN at pH 5.0” value turned out to be 99.01%, the “% RNH(+) at pH 6.5” value is 0.03% and the “% RN at pH 6.5” value is 99.97%. For the same compound, in data set [2], the “% RNH(+) at pH 7.4” value was found to be 0.00% and the “% RN at pH 7.4” value came out at 100.00%. Further, the “pKa (amine)” value in data set [3] is listed as 3.

For `CCCN(CC)C(CC)C(=O)Nc1c(C)cccc1C` (stereo not drawn) [Etidocaine], in data set [2], the “% RNH(+) at pH 5.0” value was determined as 99.80%, the “% RN at pH 5.0” value was 0.20%, the “% RNH(+) at pH 6.5” value turned out to be 94.06% and the “% RN at pH 6.5” value turned out to be 5.94%. Further, in data set [2], the “% RNH(+) at pH 7.4” value worked out at 66.61% and the “% RN at pH 7.4” value is on record as 33.39%.

Consider `O=S(=O)(O)CCN(CCO)CCO` [BES], for which, in data set [1] (Table 3, buffer), the pKa is 7.09.

With `CCCCNc1ccc(C(=O)OCCN(C)C)cc1` [Tetracaine], in data set [2], the “% RNH(+) at pH 5.0” value turned out to be 99.94%, the “% RN at pH 5.0” value is 0.06%, the “% RNH(+) at pH 6.5” value came out at 98.04% and the “% RN at pH 6.5” value was found to be 1.96%. In addition, in data set [2], the “% RNH(+) at pH 7.4” value is 86.32% and the “% RN at pH 7.4” value came out at 13.68%.

`CCN(CC)CCOC(=O)c1ccc(N)cc1` [Procaine]: in data set [2], the “% RNH(+) at pH 5.0” value is 99.99%, the “% RN at pH 5.0” value is on record as 0.01%, the “% RNH(+) at pH 6.5” value was found to be 99.60% and the “% RN at pH 6.5” value came out at 0.40%. Also, in data set [2], the “% RNH(+) at pH 7.4” value stood at 96.93% and the “% RN at pH 7.4” value was determined as 3.07%.

Take `Cc1cccc(C)c1NC(=O)C1CCCCN1C` (stereo not drawn) [Mepivacaine]: in data set [2], the “% RNH(+) at pH 5.0” value is 99.75%, the “% RN at pH 5.0” value is on record as 0.25%, the “% RNH(+) at pH 6.5” value was determined as 92.64% and the “% RN at pH 6.5” value is listed as 7.36%. Also, in data set [2], the “% RNH(+) at pH 7.4” value worked out at 61.31% and the “% RN at pH 7.4” value is 38.69%.

`CCCNC(C)C(=O)Nc1c(C)csc1C(=O)OC` (stereo not drawn) [Articaine]: in data set [2], the “% RNH(+) at pH 5.0” value was 99.84%, the “% RN at pH 5.0” value worked out at 0.16%, the “% RNH(+) at pH 6.5” value was 95.23% and the “% RN at pH 6.5” value amounted to 4.77%. Also, in data set [2], the “% RNH(+) at pH 7.4” value came out at 71.53% and the “% RN at pH 7.4” value came out at 28.47%.

Turning to `CCCCN1CCCCC1C(=O)Nc1c(C)cccc1C` (stereo not drawn) [Bupivacaine], in data set [2], the “% RNH(+) at pH 5.0” value was found to be 99.92%, the “% RN at pH 5.0” value is on record as 0.08%, the “% RNH(+) at pH 6.5” value was 97.55% and the “% RN at pH 6.5” value is 2.45%. Also, in data set [2], the “% RNH(+) at pH 7.4” value was found to be 83.37% and the “% RN at pH 7.4” value is 16.63%.

For the compound `OCC(CO)(CO)NCCCNC(CO)(CO)CO` [Bis-Tris Propane], the pKa1 in data set [1] (Table 3, buffer, first dissociation) is on record as 6.80.

Consider `O=S(=O)(O)CCNC(CO)(CO)CO` [TES], for which the pKa in data set [1] (Table 3, buffer) is recorded as 7.50.

Consider `CCCN1CCCC[C@H]1C(=O)Nc1c(C)cccc1C` [Ropivacaine], for which, in data set [2], the “% RNH(+) at pH 5.0” value stood at 99.92%, the “% RN at pH 5.0” value is given as 0.08%, the “% RNH(+) at pH 6.5” value was determined as 97.55% and the “% RN at pH 6.5” value came to 2.45%. For the same compound, in data set [2], the “% RNH(+) at pH 7.4” value amounted to 83.37% and the “% RN at pH 7.4” value stood at 16.63%.
